# Data as given in patent US20140308294A1, “Anti-IL-1R1 Inhibitors For Use in Cancer” (MERCK PATENT GMBH, priority 2011, published 2014).
# Key:
# [1] = test system: primary CRC CSC-derived xenograft tumors; test: CSC-xenograft tumor growth, CRC model in NOD/SCID mice; type: in vivo, mouse; details: 5 or 10 mg daily s.c., 76 days
# Description: (§1) CSC were FACS-enriched from primary tumor-derived NSCLC and CRC cell line cultures on the basis ALDH activity as determined by the Aldefluor assay. 10^4 cells/mouse were transplanted s.c. in NOD/SCID mice together with Matrigel. A Loading dose of 5 μg/mL Kineret (recombinant […], Amgen) was applied to the Matrigel and subsequent daily treatment s.c. with either 5 or 10 mg Kineret was performed beginning on day 1 post transplantation. Tumor volumes were monitored weekly and three mice from each group were sacrificed at day 76 for the CRC model (A.) and at day 91 for the NSCLC model (B.) for further analysis. For the remaining animals Kineret treatment was stopped and tumor progression was continually monitored. When tumors reached >2000 mm^3 mice were sacrificed. At time of sacrifice serum was collected along for cytokine analysis. A. Tumor growth curves in the CRC tumor model study and B. growth curves in the NSLCL model study. Curves represent mean tumor volume in mm3 from 10 mice/group; error bars are SEM The data shown for each model is representative of n=2 similar experiments.
# (§2) Human cell cultures derived from primary tumors obtained from a CRC (FIG. 12A) and a NSCLC (FIG. 12B) patient were sorted for the Aldeflour-positive population using fluorescence activated cell sorting (FACS). […]
# (§3) Tumor volume was monitored weekly for 76 days in the CRC model and for 91 days in the NSCLC model.
# [2] = test system: primary NSCLC CSC-derived xenograft tumors; test: CSC-xenograft tumor growth, NSCLC model in NOD/SCID mice; type: in vivo, mouse; details: 5 or 10 mg daily s.c., 91 days
# Description: as §1, §2, §3
# hIL8 = test: Serum hIL8 ELISA in NOD/SCID mice with CSC-xenograft tumors; type: in vivo, mouse; details: CRC day 76 and NSCLC day 91, vs vehicle
# Description: (§4) This analysis was performed on serum collected from the tumor model studies described in FIG. 18. Serum analysis was performed using high-sensitivity ELISA assay kits obtained from R&D systems. A.C. Serum from 3 mice at day 76 (CRC) (blue) and at day 91 (NSCLC) (red) was analyzed for hIL8 and hVEGF serum levels. Results are shown as bar graphs representing the mean cytokine concentration in pg/mL+/−SD from n=3 mice/group.
# (§5) Three mice from each study group were sacrificed at day 76 (CRC) or day 91 (NSCLC). The tumors were excised, dissociated into single cells, and viably cryopreserved. Serum was also collected for cytokine detection. For the remaining mice Kineret treatment was stopped and the mice were further monitored for tumor growth. When tumors reached ethical tumor-burden limits the mice were sacrificed and tumor cells and serum were collected. […] From all sacrificed mice we also collected and cryopreserved bone marrow cells from the femur and tibial bones for possible analyses.
# hVEGF = test: Serum hVEGF ELISA in NOD/SCID mice with CSC-xenograft tumors; type: in vivo, mouse; details: CRC day 76 and NSCLC day 91, vs vehicle
# Description: as §4, §5
# [3] = Tolerability in NOD/SCID mice of the xenograft studies; type: in vivo; details: 5 and 10 mg daily s.c.
# Text: Human cell cultures derived from primary tumors obtained from a CRC (FIG. 12A) and a NSCLC (FIG. 12B) patient were sorted for the Aldeflour-positive population using fluorescence activated cell sorting (FACS). Aldefluor is a marker of high aldehyde-dehydrogenase activity, which is associated with both normal stem cell and CSC phenotypes. The sorted aldefluor-positive (AF+) cells were suspended in Matrigel and injected subcutaneously at a very low cell number (2×10^4 cells/mouse) into NOD/SCID immune-deficient mice. The matrigel suspensions contained a Kineret loading dose of 5 μg/mL which corresponds to reported serum levels of Kineret after daily s.c. dosing. Starting 1 day after inoculation of the AF+ cells, mice were treated daily with 5 mg or 10 mg of Kineret (purchased from Biovitrum) or the drug vehicle. The administration route was s.c. as is standard for Kineret in the clinic.
# as §3
# [4] = in vivo, sc; cited from earlier work
substance,measurement,setting,value
"Kineret: human IL1R-antagonist (IL1RA) marketed under the trade name Kineret, Amgen; approved for rheumatoid arthritis",inhibition of tumor growth,[1],strong inhibition at both the 5 and 10 mg doses
same,inhibition of tumor growth,[2],response was only achieved with the higher dose of 10 mg/kg
same,hIL-8 levels in mouse serum,hIL8,reduced to undetectable levels
same,hVEGF levels in mouse serum,hVEGF,did not alter
same,tolerability,[3],well tolerated
same,reported serum levels after daily s.c. dosing,[4],5 µg/mL
